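A five-concentration, 48-hour dose response in 96-well plates underlies each endpoint, interpolated linearly between surrounding concentrations. At the GI50, growth is halved.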 Activity calls are given as the source filed them. Rule as the data show it: active = GI50 up to about 1.1 µM and inactive = higher.
What was measured:
Test in all cases: inhibition of tumour cell growth, NCI panel, 48 h
786-0 = system: 786-0
A498 = system: A498
A549 = system: A549
ACHN = system: ACHN
BT-549 = system: BT-549
CAKI-1 = system: CAKI-1
CCRF-CEM = system: CCRF-CEM
COLO 205 = system: COLO 205
DU-145 = system: DU-145
EKVX = system: EKVX
HCC 2998 = system: HCC 2998
HCT-116 = system: HCT-116
HCT-15 = system: HCT-15
HL-60 = system: HL-60
HOP-62 = system: HOP-62
HOP-92 = system: HOP-92
HT-29 = system: HT-29
Hs-578T = system: Hs-578T
IGROV-1 = system: IGROV-1
K562 = system: K562
KM12 = system: KM12
LOX IMVI = system: LOX IMVI
M14 = system: M14
MCF7 = system: MCF7
MDA-MB-231 = system: MDA-MB-231
MDA-MB-435 = system: MDA-MB-435
MDA-N = system: MDA-N
MOLT-4 = system: MOLT-4
NCI-H226 = system: NCI-H226
NCI-H23 = system: NCI-H23
NCI-H460 = system: NCI-H460
NCI-H522 = system: NCI-H522
NCI/ADR-RES = system: NCI/ADR-RES
OVCAR-3 = system: OVCAR-3
OVCAR-4 = system: OVCAR-4
OVCAR-5 = system: OVCAR-5
OVCAR-8 = system: OVCAR-8
PC-3 = system: PC-3
RPMI-8226 = system: RPMI-8226
RXF 393 = system: RXF 393
SF-268 = system: SF-268
SF-295 = system: SF-295
SF-539 = system: SF-539
SK-MEL-28 = system: SK-MEL-28
SK-MEL-2 = system: SK-MEL-2
SK-MEL-5 = system: SK-MEL-5
SK-OV-3 = system: SK-OV-3
SN12C = system: SN12C
SNB-19 = system: SNB-19
SNB-75 = system: SNB-75
SR = system: SR
SW-620 = system: SW-620
T47D = system: T47D
TK-10 = system: TK-10
U-251 = system: U-251
UACC-257 = system: UACC-257
UACC-62 = system: UACC-62
UO-31 = system: UO-31
Malme-3M = system: Malme-3M

Measured: GI50

CCc1nc(N)nc(N)c1-c1ccc([N+](C)(C)C)cc1
inactive: 786-0 > 100 µM | A498 > 100 µM | A549 > 100 µM | ACHN > 100 µM | BT-549 > 100 µM | CAKI-1 > 100 µM | CCRF-CEM > 100 µM | COLO 205 > 100 µM | DU-145 > 100 µM | EKVX > 100 µM | HCC 2998 > 100 µM | HCT-116 > 100 µM | HL-60 > 100 µM | HOP-62 > 100 µM | HOP-92 > 100 µM | HT-29 > 100 µM | Hs-578T > 100 µM | IGROV-1 > 100 µM | K562 > 83.4 µM | KM12 > 100 µM | LOX IMVI > 100 µM | M14 > 100 µM | MCF7 > 100 µM | MDA-MB-231 > 100 µM | MDA-MB-435 > 100 µM | MDA-N > 100 µM | MOLT-4 > 100 µM | NCI-H226 > 100 µM | NCI-H23 > 100 µM | NCI-H460 > 90.2 µM | NCI-H522 > 100 µM | NCI/ADR-RES > 100 µM | OVCAR-3 > 100 µM | OVCAR-4 > 100 µM | OVCAR-5 > 100 µM | OVCAR-8 > 100 µM | PC-3 > 100 µM | RPMI-8226 > 100 µM | RXF 393 > 100 µM | SF-268 > 100 µM | SF-295 > 100 µM | SF-539 > 100 µM | SK-MEL-28 > 100 µM | SK-MEL-2 > 100 µM | SK-MEL-5 > 100 µM | SK-OV-3 > 100 µM | SN12C > 100 µM | SNB-19 > 100 µM | SNB-75 > 100 µM | SR > 100 µM | SW-620 > 100 µM | T47D > 100 µM | TK-10 > 100 µM | U-251 > 100 µM | UACC-257 > 100 µM | UACC-62 > 100 µM | UO-31 > 100 µM
> 100 µM: HCT-15

COC(=O)CN(CC(=O)NCCCBr)C1CCCCC1N(CC(=O)OC)CC(=O)OC (stereo not drawn)
> 100 µM: HCT-15
inactive: 786-0 > 100 µM | A498 > 100 µM | A549 > 100 µM | ACHN > 100 µM | BT-549 > 100 µM | CAKI-1 > 100 µM | CCRF-CEM > 100 µM | COLO 205 > 100 µM | DU-145 > 100 µM | EKVX > 100 µM | HCC 2998 > 100 µM | HCT-116 > 100 µM | HL-60 > 100 µM | HOP-62 > 100 µM | HOP-92 77.3 µM | HT-29 > 100 µM | Hs-578T 53.7 µM | IGROV-1 > 100 µM | K562 > 100 µM | KM12 > 100 µM | LOX IMVI > 100 µM | MCF7 > 100 µM | MDA-MB-231 > 100 µM | MDA-MB-435 > 100 µM | MDA-N > 100 µM | MOLT-4 > 100 µM | NCI-H226 > 100 µM | NCI-H23 > 100 µM | NCI-H460 > 100 µM | NCI-H522 > 100 µM | NCI/ADR-RES > 100 µM | OVCAR-3 > 100 µM | OVCAR-4 > 100 µM | OVCAR-5 > 100 µM | OVCAR-8 > 100 µM | PC-3 > 100 µM | RPMI-8226 > 100 µM | SF-268 > 100 µM | SF-295 > 100 µM | SF-539 > 100 µM | SK-MEL-28 > 100 µM | SK-MEL-2 > 100 µM | SK-MEL-5 > 100 µM | SK-OV-3 32.3 µM | SN12C > 100 µM | SNB-19 > 100 µM | SNB-75 19.1 µM | SR > 100 µM | SW-620 > 100 µM | T47D > 100 µM | TK-10 > 100 µM | U-251 > 100 µM | UACC-257 > 100 µM | UACC-62 > 100 µM | UO-31 84.7 µM

Cn1c(=O)c2c(nc3n(CCCCl)c(=O)ccn23)n(C)c1=O
inactive: 786-0 > 100 µM | A498 > 100 µM | A549 > 100 µM | ACHN > 100 µM | BT-549 > 100 µM | CAKI-1 > 100 µM | CCRF-CEM > 100 µM | COLO 205 > 100 µM | DU-145 > 100 µM | EKVX > 100 µM | HCC 2998 > 100 µM | HCT-116 > 100 µM | HL-60 > 100 µM | HOP-62 > 100 µM | HOP-92 > 100 µM | HT-29 > 100 µM | Hs-578T > 100 µM | IGROV-1 > 100 µM | K562 > 100 µM | KM12 > 100 µM | LOX IMVI > 100 µM | M14 > 100 µM | MCF7 > 100 µM | MDA-MB-231 > 100 µM | MDA-MB-435 > 100 µM | MDA-N > 100 µM | MOLT-4 > 100 µM | NCI-H226 > 100 µM | NCI-H23 > 100 µM | NCI-H460 > 100 µM | NCI-H522 > 100 µM | NCI/ADR-RES > 100 µM | OVCAR-3 > 100 µM | OVCAR-4 > 100 µM | OVCAR-5 > 100 µM | OVCAR-8 > 100 µM | PC-3 > 100 µM | RPMI-8226 > 100 µM | RXF 393 > 100 µM | SF-268 > 100 µM | SF-295 > 100 µM | SF-539 > 100 µM | SK-MEL-28 > 100 µM | SK-MEL-2 > 100 µM | SK-MEL-5 > 100 µM | SK-OV-3 > 100 µM | SN12C > 100 µM | SNB-19 > 100 µM | SNB-75 > 100 µM | SR > 100 µM | SW-620 > 100 µM | T47D > 100 µM | TK-10 > 100 µM | U-251 > 100 µM | UACC-257 > 100 µM | UACC-62 > 100 µM | UO-31 > 100 µM
> 100 µM: HCT-15

Cc1cc(-c2nc3cc(F)c(F)cc3s2)ccc1N
> 61.4 µM: HCT-15
inactive: 786-0 > 65.2 µM | A498 > 100 µM | A549 > 55.5 µM | ACHN > 79.1 µM | BT-549 > 100 µM | CAKI-1 > 45 µM | CCRF-CEM > 35.6 µM | COLO 205 23.7 µM | DU-145 > 67.6 µM | EKVX > 79.8 µM | HCC 2998 > 42.4 µM | HCT-116 > 55.6 µM | HL-60 > 41.6 µM | HOP-62 39.7 µM | HOP-92 > 100 µM | HT-29 > 61.1 µM | Hs-578T 61.1 µM | K562 > 42.5 µM | KM12 > 69.2 µM | LOX IMVI > 82.4 µM | M14 > 55.2 µM | MDA-MB-231 > 100 µM | MDA-MB-435 > 55.3 µM | MDA-N > 56.6 µM | MOLT-4 > 49.9 µM | Malme-3M > 100 µM | NCI-H23 > 70.6 µM | NCI-H460 > 100 µM | NCI-H522 48.6 µM | NCI/ADR-RES > 59.3 µM | OVCAR-3 > 50.5 µM | OVCAR-4 60.7 µM | OVCAR-5 > 53.8 µM | OVCAR-8 > 45.4 µM | PC-3 > 52.5 µM | RPMI-8226 > 63.4 µM | RXF 393 58.3 µM | SF-268 > 100 µM | SF-295 > 48.2 µM | SK-MEL-28 > 100 µM | SK-MEL-2 > 58.5 µM | SK-MEL-5 64 µM | SK-OV-3 > 64 µM | SN12C > 74.6 µM | SNB-19 > 59.2 µM | SNB-75 51.9 µM | SR > 100 µM | SW-620 > 60.5 µM | U-251 > 45.4 µM | UACC-257 > 73.1 µM | UACC-62 > 100 µM | UO-31 > 59.4 µM
active: MCF7 < 0.0123 µM | T47D < 0.015 µM | TK-10 0.0312 µM
